Data reported in ChEMBL document CHEMBL4177586, “Small molecule adjuvants that suppress both chromosomal and mcr-1 encoded colistin-resistance and amplify colistin efficacy in polymyxin-susceptible bacteria” (Bioorg Med Chem, 2017).
In brackets after ≈: the same amount, converted by molar mass.

Experiments:
[1] = system: Acinetobacter baumannii; test: Toxicity against multidrug resistant Acinetobacter baumannii 5075 incubated for overnight duration by CLSI based method; assay type: organism-based; conditions: in vivo
[2] = system: Acinetobacter baumannii; test: Toxicity against multidrug resistant Acinetobacter baumannii BAA1605 incubated for overnight duration by CLSI based method; assay type: organism-based; conditions: in vivo
[3] = system: Klebsiella pneumoniae; test: Potentiation of colistin-induced antimicrobial activity against Klebsiella pneumoniae 2210291 expressing mcr1 gene assessed as colistin MIC at 60 uM incubated for overnight duration by CLSI based method (reference value: 16 ug/ml); assay type: functional
[4] = system: Acinetobacter baumannii; test: Potentiation of colistin-induced antimicrobial activity against colistin-resistant Acinetobacter baumannii PM4112 assessed as colistin MIC at 15 uM incubated for overnight duration by CLSI based method (reference value: 1024 ug/ml); assay type: functional
[5] = system: Acinetobacter baumannii; test: Potentiation of colistin-induced antimicrobial activity against colistin-resistant Acinetobacter baumannii PM4119 assessed as colistin MIC at 15 uM incubated for overnight duration by CLSI based method (reference value: 1024 ug/ml); assay type: functional
[6] = system: Acinetobacter baumannii; test: Potentiation of colistin-induced antimicrobial activity against colistin-resistant Acinetobacter baumannii PM4119 assessed as reduction in colistin MIC at 60 uM incubated for overnight duration by CLSI based method relative to colistin alone control; assay type: functional
[7] = system: Acinetobacter baumannii; test: Potentiation of colistin-induced antimicrobial activity against colistin-resistant Acinetobacter baumannii PM3941 assessed as reduction in colistin MIC at 15 uM incubated for overnight duration by CLSI based method relative to colistin alone control; assay type: functional
[8] = system: Klebsiella pneumoniae; test: Potentiation of colistin-induced antimicrobial activity against colistin-resistant Klebsiella pneumoniae C3 assessed as reduction in colistin MIC at 15 uM incubated for overnight duration by CLSI based method relative to colistin alone control; assay type: functional
[9] = system: Escherichia coli; test: Potentiation of colistin-induced antimicrobial activity against Escherichia coli YD626 expressing mcr1 gene assessed as reduction in colistin MIC at 60 uM incubated for overnight duration by CLSI based method relative to colistin alone control; assay type: functional
[10] = system: Klebsiella pneumoniae; test: Potentiation of colistin-induced antimicrobial activity against colistin-resistant Klebsiella pneumoniae C5 assessed as colistin MIC at 15 uM incubated for overnight duration by CLSI based method (reference value: 128 ug/ml); assay type: functional
[11] = system: Klebsiella pneumoniae; test: Potentiation of colistin-induced antimicrobial activity against colistin-resistant Klebsiella pneumoniae B9 assessed as colistin MIC at 15 uM incubated for overnight duration by CLSI based method (reference value: 512 ug/ml); assay type: functional
[12] = system: Klebsiella pneumoniae; test: Potentiation of colistin-induced antimicrobial activity against colistin-resistant Klebsiella pneumoniae C3 assessed as reduction in colistin MIC at 30 uM incubated for overnight duration by CLSI based method relative to colistin alone control; assay type: functional
[13] = system: Acinetobacter baumannii; test: Potentiation of colistin-induced antimicrobial activity against Acinetobacter baumannii SM1536 expressing mcr1 gene assessed as reduction in colistin MIC at 60 uM incubated for overnight duration by CLSI based method relative to colistin alone control; assay type: functional
[14] = system: Klebsiella pneumoniae; test: Potentiation of colistin-induced antimicrobial activity against colistin-resistant Klebsiella pneumoniae C5 assessed as colistin MIC at 60 uM incubated for overnight duration by CLSI based method (reference value: 128 ug/ml); assay type: functional
[15] = system: Acinetobacter baumannii; test: Potentiation of colistin-induced antimicrobial activity against colistin-resistant Acinetobacter baumannii PM4112 assessed as colistin MIC at 30 uM incubated for overnight duration by CLSI based method (reference value: 1024 ug/ml); assay type: functional
[16] = system: Acinetobacter baumannii; test: Potentiation of colistin-induced antimicrobial activity against colistin-resistant Acinetobacter baumannii PM3942 assessed as colistin MIC at 30 uM incubated for overnight duration by CLSI based method (reference value: 512 ug/ml); assay type: functional
[17] = system: Acinetobacter baumannii; test: Potentiation of colistin-induced antimicrobial activity against colistin-resistant Acinetobacter baumannii PM3941 assessed as colistin MIC at 30 uM incubated for overnight duration by CLSI based method (reference value: 512 ug/ml); assay type: functional
[18] = system: Klebsiella pneumoniae; test: Potentiation of colistin-induced antimicrobial activity against colistin-resistant Klebsiella pneumoniae C5 assessed as reduction in colistin MIC at 30 uM incubated for overnight duration by CLSI based method relative to colistin alone control; assay type: functional
[19] = system: Acinetobacter baumannii; test: Potentiation of colistin-induced antimicrobial activity against Acinetobacter baumannii ATCC 17978 expressing mcr1 gene assessed as reduction in colistin MIC at 60 uM incubated for overnight duration by CLSI based method relative to colistin alone control; assay type: functional

Compound | MIC [1] [µM] | MIC [2] [µM] | MIC [3] [µg/mL] | MIC [4] [µg/mL] | MIC [5] [µg/mL] | fold change (FC) [6] | fold change (FC) [7] | fold change (FC) [8] | fold change (FC) [9] | MIC [10] [µg/mL] | MIC [11] [µg/mL] | fold change (FC) [12] | fold change (FC) [13] | MIC [14] [µg/mL] | MIC [15] [µg/mL] | MIC [16] [µg/mL] | MIC [17] [µg/mL] | fold change (FC) [18] | fold change (FC) [19]
CCCCCCc1ccc(-c2cn(CC)c(N)n2)cc1 | 200 (≈ 54.3 µg/mL) | 200 (≈ 54.3 µg/mL) |  |  |  |  |  |  |  |  |  |  |  |  |  |  |  |  | 
CCCCCc1ccc(C(=O)NCCn2cc(CCCCCc3cnc(N)n3Cc3ccc(CCCC)cc3)nn2)cc1 |  |  | 0.125 | 32 | 16 | 512 | 16 | 8 | >2048 | 32 | 32 | 32 | 64 | 2 | 16 | 16 | 16 | 32 | 64
